From US6103709A (priority 1998, dated 2000)

Assays:
[1] = test system: vitamin D-deficient chick; test: Bone Ca2+ mobilizing activity (BCM) in vitamin D-deficient chick; assay type: in vivo; conditions: i.m.; for Classic Vit D Responses BCM: relative to 100 pmol 1α,25(OH)2 D3 = 100%, 12 h before assay
Protocol: The bone calcium mobilizing (BCM) assay is also conducted in the vitamin D-deficient chick. The BCM assay determines the relative ability of the tested analog to mobilize bone calcium. The natural hormone 1α,25(OH)2 D3 is very potent in the BCM assay. For example, when 1α,25(OH)2 D3 in inappropriate amounts are used as a drug in human patients, the patient may become hypercalcemic and eventually hypercalciuria with nephrolithiasis and renal failure may develop. The BCM assay was used to determine the relative activity of the analogs of the invention to stimulate bone Ca^2+ mobilization.
(§1) Results of the testing of the analogs of the invention in vivo by the ICA and IBM assays are shown in FIG. 9 which illustrates the capability of analogs LO, EV and HR to stimulate intestinal Ca^2+ absorption (ICA) and bone Ca^2+ mobilizing activity (BCM). In this study, the analogs of 1α,25(OH) were given i.m. to vitamin D-deficient chicks 12 hours before the assay began. The activity produced by 100 pmol of 1α,25(OH)2 D3 was set to be 100% for both ICA and BCM. The dose of the analogs required to achieve a biological response for either ICA or BCM equivalent to the 100 pmol dose of 1α,25(OH)2 D3 was calculated and converted to a percentage. Results are expressed as mean +SE of groups of seven chicks. Each assay included a negative control (-D), that is no vitamin D was present, and a positive control, where vitamin D3 (+D3) was present in 3.25 nmol. […] 1α,25(OH)2 D3 and analogs LO [14α,15α-methano-1α,25(OH)2 D3 ], EV [22-(m(dimethylhydroxymethyl)phenyl)-23,24,25,26,27-pentanor-1α-OH-D3 ] and HR [(22R)-1,25(OH)2 -22,23-diene-D3 ] were administered in 0.0065, 0.065, 0.65 and 6.5 nmol as shown.
(§2) In Vivo Assays of Intestinal Calcium Absorption and Bone Calcium Mobilization
(§3) This example describes assays used for determination of analogs biological activity in intestinal calcium absorption (ICA) and bone calcium mobilization (BCM) assays.
(§4) ICA and BCM were measured in vivo in the vitamin D-deficient chick model system according to Biochem. Pharmacol., 18: 2347 (1969).
(§5) Twelve hours before assay, the chickens, which had been placed on a zero-calcium diet 48 h before assay, were injected intramuscularly with the vitamin metabolite 1α,25(OH)2 D3 or analog (1-10,000 pmoles) dissolved in 0.1 mL of ethanol/1,2-propanediol (1:1, v/v). At the time of assay, 4.0 mg of ^40 Ca^2+ +5 μCi of ^45 Ca^2+ (New England Nuclear) were placed in the duodenum of the birds lightly anesthetized with ether. After 30 min, the birds were decapitated and the blood was collected.
BCM activity was estimated from the increase of total serum calcium concentration, as determined by atomic absorption spectrophotometry.

VDRmem = test: Rapid response (summary classification); conditions: Yes/No, Tables 1 and 6
Text: (§6) Table 6 identifies biological properties, such as genomic response, rapid response, agonist or antagonist function, binding of the analog to the vitamin binding protein (expressed as RCI), binding to the nuclear 1α,25(OH)2 D3 receptor (expressed as RCI) rapid response (expressed as % transcaltachia the rapid hormonal stimulation of intestinal calcium absorption) the classic vitamin D responses such as intestinal Ca^2+ absorption (ICA) and bone Ca^2+ mobilizing activity (BCM) determined in vivo in a vitamin D-deficient chick, and cell differentiation (expressed as % ED50), an assessment of the ability to promote the nuclear response of cell differentiation.

VDRnuc = test: Genomic response (summary classification); conditions: Yes/No, Tables 1 and 6
Text: as §6

rapid responses (VDRmem) = test: Antagonist function (summary classification); conditions: Yes/No, Tables 1 and 6
Text: as §6

[2] = test system: vitamin D-deficient chick; test: Intestinal Ca2+ absorption (ICA) in vitamin D-deficient chick; assay type: in vivo; conditions: i.m.; for Classic Vit D Responses ICA: relative to 100 pmol 1α,25(OH)2 D3 = 100%, 12 h before assay
Protocol: A primary fundamental physiological property of vitamin D and particularly 1α,25(OH)2 D3 is its ability to stimulate the intestinal absorption of calcium and facilitate the availability of dietary calcium to the organism. Intestinal absorption of the calcium is measured by the intestinal calcium absorption (ICA) assay, developed in the model of vitamin-D deficient chicks. The ICA assay was used to determine the relative capability of the tested analog to stimulate intestinal Ca^2+ absorption.
as §1, §2, §3, §4, §5
The radioactivity content, which is a measure of ICA, of 0.2 mL of serum was measured in a liquid scintillation counter (Beckman LS8000) to determine the amount of ^45 Ca^2+ absorbed.

[3] = target: T1, human vitamin D-binding protein (hDBP) (Homo sapiens, UniProt P02774); test: Relative Competitive Index assay, vitamin D-binding protein; conditions: RCI of 1α,25(OH)2 D3 set to 100; 4° C., pH 7.4
T1 sequence (P02774 17-474): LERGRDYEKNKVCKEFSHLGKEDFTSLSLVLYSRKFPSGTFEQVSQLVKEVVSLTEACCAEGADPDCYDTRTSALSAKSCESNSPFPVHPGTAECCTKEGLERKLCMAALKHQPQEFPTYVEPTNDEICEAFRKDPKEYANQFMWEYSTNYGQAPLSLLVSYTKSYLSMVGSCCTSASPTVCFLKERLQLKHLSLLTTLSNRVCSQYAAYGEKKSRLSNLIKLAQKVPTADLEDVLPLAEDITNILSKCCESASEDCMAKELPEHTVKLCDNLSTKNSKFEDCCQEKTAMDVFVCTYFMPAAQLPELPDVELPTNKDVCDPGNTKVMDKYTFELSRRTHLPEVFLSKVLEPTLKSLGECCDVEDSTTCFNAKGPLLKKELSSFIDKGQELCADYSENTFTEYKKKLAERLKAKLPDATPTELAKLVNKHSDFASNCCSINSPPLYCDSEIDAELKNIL
Text: The compared analogs are 14α,15α-methano-1α,25(OH)2 D3 (LO), 22(m(dimethylhydroxymethyl)phenyl)-23,24,25,26,27-pentanor-1α- OH-D3 (EV) and (22R)-1,25(OH)2 -22,23,diene-D3 (HR), all conformationally flexible genomic agonists. By definition the RCI for 1α,25(OH)2 D3 is set to 100%. The data seen in FIG. 7 represent the mean of three determinations.
Vitamin D-Binding Protein Assay Relative Competitive Index
This example describes a Relative Competitive Index Assay used for determination of analogs binding affinity to vitamin D-binding protein.
Phase separation was then obtained by the addition of 0.5 ml of cold dextran-coated charcoal.
The data was plotted as [competitor]/[[^3 H]25(OH)D3 ] vs. 1/[fraction bound]. The RCI was calculated as [slope of competitor]/[slopefor 25(OH)D3 ]×100. Results are seen in FIG. 7. Although each analog was assayed in competition with [^3 H]25(OH)D3, the data are expressed as relative to the binding of 1α,25(OH)2 D3, with its RCI set to 100.

| Vit D Binding Protein (RCI) [3] | Compound | Classic Vit D Responses BCM [1] | Rapid Response (VDRmem) | Genomic Response (VDRnuc) | Antagonist (rapid responses (VDRmem)) | Classic Vit D Responses ICA [2] | BCM (in words) ([1]; vitamin D-deficient chick) | ICA (in words) ([2]; vitamin D-deficient chick) |
| --- | --- | --- | --- | --- | --- | --- | --- | --- |
|  | C=C1/C(=C\C=C2/CCC[C@]3(C)[C@@H]([C@H](C)CCCC(C)(C)O)CC[C@@H]23)C[C@H](O)C[C@@H]1O [HJ] | 1.5% | Yes | Yes | No | 2.8% |  |  |
|  | C=C1/C(=C/C=C2/CCC[C@]3(C)[C@@H]([C@H](C)CCCC(C)(C)O)CC[C@@H]23)C[C@@H](O)C[C@@H]1O [JS] | < 0.02% | Yes | Yes | No | < 0.02% |  |  |
|  | C=C1/C(=C\C=C2\CCC[C@]3(C)[C@@H]([C@H](C)CCCC(C)(C)O)CC[C@@H]23)C[C@@H](O)C[C@@H]1O [JR] | 0.02% | Yes | Yes | No | 0.03% |  |  |
| 66,700 | C=C1CC[C@H](O)C/C1=C/C=C1\CCC[C@]2(C)[C@@H]([C@H](C)CCCC(C)(C)O)CC[C@@H]12 [25(OH)D3, 25-hydroxyvitamin D3, reference compound] |  |  |  |  |  |  |  |
|  | C=C1CC[C@H](O)C/C1=C/C=C1\CCC[C@]2(C)[C@@H]([C@H](C)CCCC(C)C)CC[C@@H]12 [vitamin D3, 9,10-secocholesta-5,7,10(19)-trien-3β-ol, reference compound] |  |  |  |  |  | significant at P<0.01 | significant at P<0.01 |
|  | C=C1/C(=C\C=C2/CCC[C@]3(C)[C@@H]([C@H](C)CCCC(C)(C)O)CC[C@@H]23)C[C@H](O)C[C@H]1O [HH] |  | No | No | Yes |  |  |  |
|  | C=C1/C(=C\C=C2/CCC[C@@]3(C)[C@@H]2CC[C@@H]3[C@H](C)CCCC(C)(C)O)C[C@@H](O)C[C@@H]1O [GE] | < 0.1% | Yes | Yes | No | 0.5% |  |  |
